# Data published in patent US20230365592A1 (Agios Pharmaceuticals, Inc., priority 2022, published 2023).
# Target: T1, human PAH with the R408W mutation (Homo sapiens, UniProt P00439, R408W)
# T1 construct: expressed in transfected cells
# T1 sequence (P00439 1-452 R408W): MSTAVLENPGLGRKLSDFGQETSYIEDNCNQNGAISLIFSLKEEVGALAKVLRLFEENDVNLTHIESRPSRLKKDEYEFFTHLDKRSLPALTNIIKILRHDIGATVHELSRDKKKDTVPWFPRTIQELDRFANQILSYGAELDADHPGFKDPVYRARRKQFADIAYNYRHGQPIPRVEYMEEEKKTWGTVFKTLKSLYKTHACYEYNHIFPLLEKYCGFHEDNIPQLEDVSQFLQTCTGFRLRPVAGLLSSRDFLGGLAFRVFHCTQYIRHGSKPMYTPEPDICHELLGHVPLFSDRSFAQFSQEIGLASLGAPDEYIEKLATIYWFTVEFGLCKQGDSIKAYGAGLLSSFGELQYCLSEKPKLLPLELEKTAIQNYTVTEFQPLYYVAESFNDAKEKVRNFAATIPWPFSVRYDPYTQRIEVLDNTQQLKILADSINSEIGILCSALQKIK
# Experiment: Cell Based Phenylalanine Flux Assay;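 note: after compound treatment, cells received sepiapterin plus isotope-labelled Phenylalanine for 4 hours, then labelled Tyrosine in the medium was quantified, 10-point 2-fold dilution series run in duplicate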
# Details: A375 cells expressing R408W PAH; 24 hrs with compound, then 20 µM sepiapterin and 800 µM 13C9,15N-Phenylalanine for 4 hours; 13C-Tyrosine by LC-MS; average where tested multiple times; read-out: AC50
row,Compound,AC50
1,Cn1ccc(-c2ncc(C(=O)N3CCc4[nH]cnc4C3c3cc4ccccn4n3)o2)n1 (centres unmarked),> 5 µM
2,Cc1c(-c2ncc(C(=O)N3CCc4[nH]cnc4C3c3cc4ccccn4n3)o2)cnn1C (centres unmarked),> 5 µM
3,Cc1cccn2nc(C3c4nc[nH]c4CCN3C(=O)c3nnc(-c4cn[nH]c4)o3)cc12 (centres unmarked) [listing 1 of 2 here],> 5 µM
4,FC(F)c1cccc2cc(C3c4nc[nH]c4CCN3c3ncccn3)nn12 (centres unmarked),1 to 5 µM
5,O=C(c1cnc(-c2ncccn2)o1)N1CCc2[nH]cnc2C1c1cc2c(F)cccn2n1 (centres unmarked) [listing 1 of 2 here],> 5 µM
6,O=C(c1nnc(-c2ccc(C(F)(F)F)cn2)o1)N1CCc2[nH]cnc2C1c1cc2ccccn2n1 (centres unmarked),> 5 µM
7,Cc1cccc2cc(C3c4nc[nH]c4CCN3c3nnc(C4CCC4)o3)nn12 (centres unmarked),> 5 µM
8,COc1cccn2nc(C3c4nc[nH]c4CCN3C(=O)c3cnn4cc(N(C)C)ccc34)cc12 (centres unmarked) [listing 1 of 2 here],> 5 µM
9,COc1cccn2nc(C3c4nc[nH]c4CCN3C(=O)c3cnn4cc(-c5cnn(C)c5)ccc34)cc12 (centres unmarked) [listing 1 of 2 here],> 5 µM
10,COc1ccc2c(C(=O)N3CCc4[nH]cnc4C3c3cc4cccc(C(F)F)n4n3)cnn2c1 (centres unmarked) [listing 1 of 2 here],> 5 µM
11,Cn1cc(-c2nc(C3CC3)c(C(=O)N3CCc4[nH]cnc4C3c3cc4ccccn4n3)o2)cn1 (centres unmarked) [listing 1 of 2 here],> 5 µM
12,Cn1ncc(C(=O)N2CCc3[nH]cnc3C2c2cc3ccccn3n2)c1C(F)F (centres unmarked),1 to 5 µM
13,Cc1ccc2c(C(=O)N3CCc4[nH]cnc4C3c3cc4cccc(Cl)n4n3)cnn2c1 (centres unmarked) [listing 1 of 2 here],> 5 µM
14,Cc1ccc2c(C(=O)N3CCc4[nH]cnc4C3c3cc4cccc(C)n4n3)cnn2c1 (centres unmarked) [listing 1 of 2 here],> 5 µM
15,COCCNc1nnc(C(=O)N2CCc3[nH]cnc3C2c2cc3ccccn3n2)o1 (centres unmarked) [listing 1 of 2 here],> 5 µM
16,CN(C)CCc1ccc2c(C(=O)N3CCc4[nH]cnc4C3c3cc4cccc(C(F)(F)F)n4n3)cnn2c1 (centres unmarked) [listing 1 of 2 here],> 5 µM
17,Cn1cc(-c2ncc(C(=O)N3CCc4[nH]cnc4C3c3cc4ccccn4n3)o2)cn1 (centres unmarked),1 to 5 µM
18,O=C(c1nnc(-c2cn[nH]c2)o1)N1CCc2[nH]cnc2C1c1cc2ccccn2n1 (centres unmarked),1 to 5 µM
19,Cn1cc(-c2nnc(N3CCc4[nH]cnc4C3c3cc4c(C(F)F)cccn4n3)o2)cn1 (centres unmarked),> 5 µM
20,FC(F)c1cccn2nc(C3c4nc[nH]c4CCN3c3nc4ccccc4o3)cc12 (centres unmarked),> 5 µM
21,O=C(c1nnc(-c2cnn(C(F)(F)F)c2)o1)N1CCc2[nH]cnc2C1c1cc2c(OC(F)(F)F)cccn2n1 (centres unmarked),1 to 5 µM
22,O=C(c1nc2ccccc2s1)N1CCc2[nH]cnc2C1c1cc2c(C(F)(F)F)cccn2n1 (centres unmarked),1 to 5 µM
23,O=C(c1ncco1)N1CCc2[nH]cnc2C1c1cc2c(F)cccn2n1 (centres unmarked),1 to 5 µM
24,Cc1nnc(C(=O)N2CCc3[nH]cnc3C2c2cc3c(F)cccn3n2)s1 (centres unmarked),1 to 5 µM
25,Cc1cccn2nc(C3c4nc[nH]c4CCN3C(=O)c3nnc(-c4cn[nH]c4)o3)cc12 (centres unmarked) [listing 2 of 2 here],1 to 5 µM
26,Nc1cnc(N2CCc3[nH]cnc3C2c2cc3cccc(C(F)(F)F)n3n2)nc1 (centres unmarked),> 5 µM
27,FC(F)c1nnc(N2CCc3[nH]cnc3C2c2cc3cccc(Cl)n3n2)o1 (centres unmarked),1 to 5 µM

row,Compound,AC50
1,Nc1cnc(N2CCc3[nH]cnc3C2c2cc3cccc(Cl)n3n2)nc1 (centres unmarked),1 to 5 µM
2,Clc1cccc2cc(C3c4nc[nH]c4CCN3c3nnc(C4CCC4)o3)nn12 (centres unmarked),1 to 5 µM
3,Fc1cccc2cc(C3c4nc[nH]c4CCN3c3nnc(C(F)(F)F)o3)nn12 (centres unmarked),1 to 5 µM
4,Cc1cccc2cc(C3c4nc[nH]c4CCN3c3ncc(N)cn3)nn12 (centres unmarked),1 to 5 µM
5,Nc1cnc(N2CCc3[nH]cnc3C2c2cc3ccccn3n2)nc1 (centres unmarked),> 5 µM
6,O=C(c1nccs1)N1CCc2[nH]cnc2C1c1cc2ccccn2n1 (centres unmarked),1 to 5 µM
7,O=C(c1ncco1)N1CCc2[nH]cnc2C1c1cc2ccccn2n1 (centres unmarked),1 to 5 µM
8,O=C(c1cnc(-c2ncccn2)o1)N1CCc2[nH]cnc2C1c1cc2c(C(F)F)cccn2n1 (centres unmarked),> 5 µM
9,O=C(c1cnc(-c2ncccn2)o1)N1CCc2[nH]cnc2C1c1cc2c(C(F)(F)F)cccn2n1 (centres unmarked),1 to 5 µM
10,O=C(c1cnc(-c2ncccn2)o1)N1CCc2[nH]cnc2C1c1cc2c(F)cccn2n1 (centres unmarked) [listing 2 of 2 here],> 5 µM
11,Cc1cccn2nc(C3c4nc[nH]c4CCN3C(=O)c3cnc(-c4ncccn4)o3)cc12 (centres unmarked),1 to 5 µM
12,FC(F)c1nnc(N2CCc3[nH]cnc3C2c2cc3cccc(C(F)(F)F)n3n2)o1 (centres unmarked),1 to 5 µM
13,Fc1cccc2cc(C3c4nc[nH]c4CCN3c3nnc(C(F)F)o3)nn12 (centres unmarked),1 to 5 µM
14,COCc1nnc(C(=O)N2CCc3[nH]cnc3C2c2cc3ccccn3n2)o1 (centres unmarked),1 to 5 µM
15,Fc1cccn2nc(C3c4nc[nH]c4CCN3c3nnc(C4CCC4)o3)cc12 (centres unmarked),1 to 5 µM
16,FC(F)c1cccc2cc(C3c4nc[nH]c4CCN3c3nnc(C4CCC4)o3)nn12 (centres unmarked),1 to 5 µM
17,FC(F)(F)c1cccc2cc(C3c4nc[nH]c4CCN3c3nnc(C4CCC4)o3)nn12 (centres unmarked),1 to 5 µM
18,Cc1nnc(N2CCc3[nH]cnc3C2c2cc3cccc(C(F)(F)F)n3n2)o1 (centres unmarked),1 to 5 µM
19,Cc1nnc(N2CCc3[nH]cnc3C2c2cc3cccc(C)n3n2)o1 (centres unmarked),1 to 5 µM
20,Cc1nnc(C(=O)N2CCc3[nH]cnc3C2c2cc3ccccn3n2)s1 (centres unmarked),1 to 5 µM
21,CC(C)(C)c1nnc(N2CCc3[nH]cnc3C2c2cc3c(C(F)(F)F)cccn3n2)o1 (centres unmarked),1 to 5 µM
22,CC(C)(C)c1nnc(N2CCc3[nH]cnc3C2c2cc3c(F)cccn3n2)o1 (centres unmarked),> 5 µM
23,CC(C)(C)c1nnc(N2CCc3[nH]cnc3C2c2cc3cccc(C(F)F)n3n2)o1 (centres unmarked),> 5 µM
24,CC(C)(C)c1nnc(N2CCc3[nH]cnc3C2c2cc3cccc(C(F)(F)F)n3n2)o1 (centres unmarked),> 5 µM
25,CC(C)(C)c1nnc(N2CCc3[nH]cnc3C2c2cc3cccc(Cl)n3n2)o1 (centres unmarked),> 5 µM
26,Cc1cccc2cc(C3c4nc[nH]c4CCN3c3nnc(C(C)(C)C)o3)nn12 (centres unmarked),1 to 5 µM
27,CC(C)(C)c1nnc(N2CCc3[nH]cnc3C2c2cc3ccccn3n2)o1 (centres unmarked),1 to 5 µM

row,Compound,AC50
1,COc1cccn2nc(C3c4nc[nH]c4CCN3C(=O)c3cnn4cc(N(C)C)ccc34)cc12 (centres unmarked) [listing 2 of 2 here],1 to 5 µM
2,CN(C)c1ccc2c(C(=O)N3CCc4[nH]cnc4C3c3cc4cccc(C(F)F)n4n3)cnn2c1 (centres unmarked),1 to 5 µM
3,CN(C)c1ccc2c(C(=O)N3CCc4[nH]cnc4C3c3cc4cccc(F)n4n3)cnn2c1 (centres unmarked),1 to 5 µM
4,Cc1nnc(CCC(=O)N2CCc3[nH]cnc3C2c2cc3ccccn3n2)s1 (centres unmarked),> 5 µM
5,Cn1nc(C(F)F)cc1C(=O)N1CCc2[nH]cnc2C1c1cc2ccccn2n1 (centres unmarked),1 to 5 µM
6,COc1cccn2nc(C3c4nc[nH]c4CCN3C(=O)c3cnn4cc(-c5cnn(C)c5)ccc34)cc12 (centres unmarked) [listing 2 of 2 here],1 to 5 µM
7,FC(F)c1cccn2nc(C3c4nc[nH]c4CCN3c3nnc(N4CCOCC4)o3)cc12 (centres unmarked),> 5 µM
8,FC(F)(F)c1cccn2nc(C3c4nc[nH]c4CCN3c3nnc(N4CCOCC4)o3)cc12 (centres unmarked),> 5 µM
9,COc1ccc2c(C(=O)N3CCc4[nH]cnc4C3c3cc4cccc(C(F)F)n4n3)cnn2c1 (centres unmarked) [listing 2 of 2 here],1 to 5 µM
10,Cn1cc(-c2nc(C3CC3)c(C(=O)N3CCc4[nH]cnc4C3c3cc4ccccn4n3)o2)cn1 (centres unmarked) [listing 2 of 2 here],1 to 5 µM
11,O=C(c1ocnc1C1CC1)N1CCc2[nH]cnc2C1c1cc2cccc(C(F)(F)F)n2n1 (centres unmarked),1 to 5 µM
12,COCCc1ccc2c(C(=O)N3CCc4[nH]cnc4C3c3cc4cccc(C(F)(F)F)n4n3)cnn2c1 (centres unmarked),1 to 5 µM
13,COCCc1ccc2c(C(=O)N3CCc4[nH]cnc4C3c3cc4ccccn4n3)cnn2c1 (centres unmarked),> 5 µM
14,COCc1ccc2c(C(=O)N3CCc4[nH]cnc4C3c3cc4c(OC)cccn4n3)cnn2c1 (centres unmarked),1 to 5 µM
15,Cc1cccc2cc(C3c4nc[nH]c4CCN3C(=O)c3cnn4cc(C5CC5)ccc34)nn12 (centres unmarked),1 to 5 µM
16,Nc1ccc(N2CCc3[nH]cnc3C2c2cc3c(C(F)F)cccn3n2)nc1 (centres unmarked),1 to 5 µM
17,Nc1ccc(N2CCc3[nH]cnc3C2c2cc3ccccn3n2)nc1 (centres unmarked),> 5 µM
18,O=C(c1cnn2ccccc12)N1CCc2[nH]cnc2C1c1cc2cccc(C(F)F)n2n1 (centres unmarked),1 to 5 µM
19,Cc1ccc2c(C(=O)N3CCc4[nH]cnc4C3c3cc4cccc(Cl)n4n3)cnn2c1 (centres unmarked) [listing 2 of 2 here],1 to 5 µM
20,Cc1ccc2c(C(=O)N3CCc4[nH]cnc4C3c3cc4cccc(C)n4n3)cnn2c1 (centres unmarked) [listing 2 of 2 here],1 to 5 µM
21,COCCNc1nnc(C(=O)N2CCc3[nH]cnc3C2c2cc3ccccn3n2)o1 (centres unmarked) [listing 2 of 2 here],> 5 µM
22,CN(C)CCc1ccc2c(C(=O)N3CCc4[nH]cnc4C3c3cc4c(F)cccn4n3)cnn2c1 (centres unmarked),1 to 5 µM
23,Cc1cccn2nc(C3c4nc[nH]c4CCN3C(=O)c3cnn4cc(CCN(C)C)ccc34)cc12 (centres unmarked),1 to 5 µM
24,CN(C)CCc1ccc2c(C(=O)N3CCc4[nH]cnc4C3c3cc4cccc(C(F)(F)F)n4n3)cnn2c1 (centres unmarked) [listing 2 of 2 here],1 to 5 µM
25,CN(C)Cc1nnc(C(=O)N2CCc3[nH]cnc3C2c2cc3ccccn3n2)o1 (centres unmarked),> 5 µM
26,Cc1ncoc1C(=O)N1CC2(CC2)c2[nH]cnc2C1c1cc2ccccn2n1 (centres unmarked),1 to 5 µM
